How the values were obtained:
C3Tag tumors = test: In vivo tumorigenesis experiment, C3Tag TNBC GEMM (tumor volume); set-up: species or system mouse; details: C3Tag mice, 21 days, sorafenib 30 mg/kg in diet
Procedure: In vivo tumorigenesis experiments: Animal handling and procedures were approved by the University of North Carolina at Chapel Hill Institutional Animal Care and Use Committee and followed the NIH guidelines. Male C3Tag mice were bred with wild type females to produce experimental offspring. Mice were examined for tumors weekly until a palpable mass was found. Treatment began the same day. Tumor size was assessed twice weekly by caliper measurements of tumor areas ((width)2×length))/2 for 21 days. Percent change of tumor volume was calculated using (Final volume−Initial Volume)/Initial Volume and graphed using R (http://www.r-project.org/). Drugs were incorporated into the diet of mice to achieve a daily dose of AZD6244 20 mg/kg and sorafenib 30 mg/kg. Food was provided ab libitum and the amount of daily food intake was pre-determined using Jackson Labs Phenome Database. Tumors at harvest were cut in half and either snap-frozen in liquid nitrogen and stored at −80° C. or placed in neutral buffered 10% formalin solution.

[1] = tested on: kinome (kinase binding to MIBs) of C3Tag tumors; test: MIB/MS kinome profile of C3Tag tumors; format: in vivo, mouse; details: sorafenib 30 mg/kg, 26 days
Source text: Multiplexed inhibitor bead affinity chromatography: Cells and tumors were lysed and harvested as previously described (Oppermann et al., 2009). Oppermann et al., 2009 Mol Cell Proteo 8 1751-1764. Briefly, lysates were brought to 1 M NaCl and passed through columns of washed inhibitor-conjugated beads (bisindoylmaleimide-X, SB203580, lapatinib, dasatinib, purvalanol B, VI16832, PP58) to isolate protein kinases from the lysates (see Supplemental Experimental Procedures for MIBs preparation). Kinase-bound inhibitor beads were washed with high-salt buffer and 0.1% SDS before elution in 0.5% SDS solution in high heat. Proteins were purified using chloroform/methanol extraction, resuspended in 50 mM ammonium bicarbonate (pH 8.0) or 50 mM HEPES (pH 8.0) for SILAC or iTRAQ respectfully. […]
LC-MS/MS analysis: MS and MS/MS data were acquired using a MALDI TOF/TOF 5800 (AB SCIEX). Peptides were analyzed using ProteinPilot Software Version 3.0 (AB SCIEX) and identification using UniProtKB/Swiss-Prot database (release Oct. 15, 2009). […] ProteinPilot software 3.0 identified and quantified changes in kinase binding to MIBs utilizing the Pro Group Algorithm. […]
Treatment began the same day. Tumor size was assessed twice weekly by caliper measurements of tumor areas ((width)2×length))/2 for 21 days. […]

SUM159-R cells = test: Growth of AZD6244-resistant SUM159-R cells; format: cell-based, human; details: 250 nM sorafenib, 72 h, cells grown in 5 μM AZD6244
Procedure: (§1) Cell Culture: MDA-MB-231 cells were grown in DMEM/F12 supplemented with 10% FBS. SUM-159 cells were grown in DMEM/F12 supplemented with 10% FBS 1 μg/mL hydrocortisone, and 5 μg/mL insulin. SUM159-R cells were continually grown in the presence of 5 μM AZD6244. For SILAC labeling, cells were grown for five doublings in arginine- and lysine-depleted media (as above) supplemented with either unlabeled L-arginine (42 mg/L) and L-lysine (71 mg/L) or equimolar amounts of heavy isotope labeled [13C6,15N4]arginine (Arg10) and [13C6]lysine (Lys6) (Cambridge Isotope Laboratories). Proliferation was quantified using Cell-Titer Glo Luminescent Cell Viability Assay (Promega). Fresh media containing DMSO or kinase inhibitors was added daily and experiments were performed in triplicate.
(§2) Generation of AZD6244 resistant SUM159 cells: SUM159 cells were cultured in DMEM/F12 supplemented with 10% FBS media containing 5 μM AZD6244. Media was changed every 2 days, maintaining inhibitor concentrations of 5 μM AZD6244.

ERK = test: MEK/ERK activation in C3Tag tumors (western blot); format: in vivo, mouse; details: AZD6244 20 mg/kg 28 days; sorafenib 30 mg/kg 26 days
Procedure: (§3) Treatment began the same day. Tumor size was assessed twice weekly by caliper measurements of tumor areas ((width)2×length))/2 for 21 days. […] Drugs were incorporated into the diet of mice to achieve a daily dose of AZD6244 20 mg/kg and sorafenib 30 mg/kg. […] Tumors at harvest were cut in half and either snap-frozen in liquid nitrogen and stored at −80° C. or placed in neutral buffered 10% formalin solution.
Western blotting: Proteins from cell lysates were separated by SDS-PAGE chromatography, transferred to nitrocellulose membranes, and probed with the indicated primary antibodies. Antibodies recognizing pAKT (S473), pAKT (T308), AURA, pAXL (Y702), AXL, c-Myc, DDR1, EGFR, pERK1/2 (T202/Y204), pHER3 (Y1197), MAX, pMEK1/2 (S217/S221), MEK1/2, MKP3, pP70S6K (T389), pPDGFRβ (Y751), pPDGFRβ (Y1009), pPDGFR (Y857), PDGFRβ, pRAF (S338), pRSK1 (T359/S363), pVEGFR2 (Y1175), VEGFR2 were obtained from Cell Signaling Technology. Antibodies for Cyclin A2, Cyclin B1, Cyclin D1, ERK2, RAF, and pRAF (S259) were obtained from Santa Cruz Biotechnology. The antibody recognizing Bim was obtained from Chemicon. The antibody recognizing p-c-Myc (S62) was obtained from Abeam. Secondary HRP-anti-rabbit and HRP-anti-goat secondary antibodies were from Jackson Immunoresearch Laboratories and Santa Cruz Biotechnology, respectively. […]

RTKs [2] = test: RTK tyrosine phosphorylation/expression in SUM159 cells (RTK arrays, western blot); format: cell-based, human
Procedure: (§4) Western blotting and RTK arrays: Western blotting and RTK array analysis were performed as previously described (Amin et al., 2010). Amin et al. 2010 Sci Transl Med 2, 16ra17. Detailed methods and antibodies are provided in Supplemental Experimental Procedures.
(§5) Western blotting: Proteins from cell lysates were separated by SDS-PAGE chromatography, transferred to nitrocellulose membranes, and probed with the indicated primary antibodies. Antibodies recognizing pAKT (S473), pAKT (T308), AURA, pAXL (Y702), AXL, c-Myc, DDR1, EGFR, pERK1/2 (T202/Y204), pHER3 (Y1197), MAX, pMEK1/2 (S217/S221), MEK1/2, MKP3, pP70S6K (T389), pPDGFRβ (Y751), pPDGFRβ (Y1009), pPDGFR (Y857), PDGFRβ, pRAF (S338), pRSK1 (T359/S363), pVEGFR2 (Y1175), VEGFR2 were obtained from Cell Signaling Technology. Antibodies for Cyclin A2, Cyclin B1, Cyclin D1, ERK2, RAF, and pRAF (S259) were obtained from Santa Cruz Biotechnology. The antibody recognizing Bim was obtained from Chemicon. The antibody recognizing p-c-Myc (S62) was obtained from Abeam. Secondary HRP-anti-rabbit and HRP-anti-goat secondary antibodies were from Jackson Immunoresearch Laboratories and Santa Cruz Biotechnology, respectively. Western blots were visualized by incubation with SuperSignal West Pico Chemiluminescent Substrate (Thermo Scientific).
RTK arrays: Cells were harvested in RTK array lysis buffer containing 20 mM Tris-HCl (pH 8.0), 1% NP-40, 10% glycerol, 137 mM NaCl, 2 mM EDTA, 1×EDTA-free protease inhibitor cocktail (Roche), and 1% each of phosphatase inhibitor cocktails 1 and 2 (Sigma). After incubating on ice for 20 minutes, cell debris was pelleted at 4° C. Lysates (500 μg protein) were applied to R&D Systems Proteome Profiler™ Human Phospho-RTK antibody arrays. Washing and secondary antibody steps were performed according to the manufacturer“s instructions. RTK arrays were visualized by SuperSignal West Pico Chemiluminescent Substrate (Thermo Scientific).

MDA-MB-231 cells = test: MDA-MB-231 cell growth (Cell-Titer Glo); format: cell-based, human; details: for MDA-MB-231 cell growth in combination with AZD6244: combination with AZD6244 (FIG. 12C, 12D, 12G)
Procedure: as §1

SUM159 cells = test: SUM159 cell growth (Cell-Titer Glo, cell counts); format: cell-based, human; details: for SUM159 cell growth inhibition in combination with AZD6244 / SUM159 cell growth inhibition, RTK inhibitor as single agent: Cell-Titer Glo (FIG. 5C, 5D)
Procedure: as §1

RTKs [3] = test: RTK expression in C3Tag tumors (western blot); format: in vivo, mouse; details: AZD6244 20 mg/kg 28 days; sorafenib 30 mg/kg 26 days
Procedure: as §3, §5

ERK1/2 [4] = test: ERK activity in SUM159-R cells (western blot); format: cell-based, human; details: sorafenib (250 nM) added to 5 μM AZD6244
Procedure: (§6) Detailed methods and antibodies are provided in Supplemental Experimental Procedures.
as §2, §5

c-Myc = c-Myc protein and RNA levels in SUM159 cells (western blot, qRT-PCR); format: cell-based, human
Procedure: as §4
qRT-PCR: Total RNA was isolated from human breast cancer cell lines or murine tumors using the RNeasy® Plus Mini Kit (Qiagen). Real-time RT-PCR was performed on diluted cDNA using the Applied Biosystems 7500 Fast Real-Time PCR System (standard program) and inventoried TaqMan® Gene Expression Assays. Each cDNA sample was assayed in triplicate. Fold change with respect to the calibrator represents the average of the triplicate values, with error bars representing the range of the mean (95% confidence).
as §5

RTKs [5] = test: RTK expression in SUM159-R cells (western blot, qRT-PCR); format: cell-based, human; details: 10 nM bortezomib, 24 h
Procedure: as §6, §2

ERK1/2 [6] = test: Western blot of MEK/ERK signaling in SUM159 cells; format: cell-based, human; details: BEZ235 (FIG. 10F)
Source text: as §6, §5

p70 S6 kinase [7] = test: p70 S6 kinase activity in SUM159 cells; format: cell-based, human; details: BEZ235 (FIG. 10F)
Source text: as §6, §5

p70 S6 kinase [8] = test: p70 S6 kinase activity in HPAC pancreatic cancer cells; format: cell-based
Procedure: (§7) Kinome reprogramming in pancreatic cancer—cell type and inhibitor specific. The kinome response to drug in 3 pancreatic cancer cell lines (HPAC, AsPC-1, HPAF-II) was also evaluated using 3 kinase inhibitors that are currently in Phase I/II clinical trials: BKM120 (Novartis), an oral pan-class 1 PI3K inhibitor, […] (Glaxo Smith-Kline), an ATP competitive PI3K/mTOR inhibitor, and GSK1120212, a reversible allosteric inhibitor of MEK1/2 (Glaxo Smith-Kline). The kinome response for GSK2126458 and GSK1120212 was compared using MIB/MS and RTK arrays to determine if kinome reprogramming was inhibitor-specific. […] Thus, kinome reprogramming is target-specific.

[9] = tested on: ALK, RET, INSR and IGF-1R; test: RTK phosphorylation in pancreatic cancer cells (RTK arrays); format: cell-based
Procedure: as §7
Kinome reprogramming in pancreatic cancer cell lines: HPAC, AsPC-1, HPAF-II cell lines were treated with either GSK1120212, GSK2126458, BKM120 or vehicle control and harvested at […]. Normalized spot intensity of RTK arrays were measured and activated and repressed RTK were determined in response to either GSK1120212 or GSK2126458 4 h and 72 h after treatment.

CNC(=O)c1cc(Oc2ccc(NC(=O)Nc3ccc(Cl)c(C(F)(F)F)c3)cc2)ccn1 [sorafenib]
effect on tumor progression (C3Tag tumors): no effect | MIB binding of BRAF, PDGFRβ, CSF1R, DDR1, DDR2, KIT, MLTK and FRK [1]: decreased MIB binding | growth of SUM159-R cells, cell counts (SUM159-R cells): Inhibited cell growth | tumor MEK and ERK compared to untreated animals (ERK): strongly activated | Tyr phosphorylation of RTKs induced by AZD6244 (RTKs [2]; RTK arrays, 72 h, with AZD6244): inhibited Tyr phosphorylation of multiple RTKs | MDA-MB-231 cell growth in combination with AZD6244 (MDA-MB-231 cells): synergizes | SUM159 cell growth inhibition in combination with AZD6244 (SUM159 cells): synergistic | SUM159 cell growth inhibition, RTK inhibitor as single agent (SUM159 cells): ineffective as single agents | growth of SUM159 cells, sorafenib at the highest dose tested in combination with AZD6244 (SUM159 cells; highest dose tested, 72 h): synergistically inhibited growth | SUM159 proliferation, sorafenib at low doses in combination with AZD6244 (SUM159 cells; low doses, 72 h): did not significantly stimulate proliferation | expression of RTKs in C3Tag tumors versus untreated (RTKs [3]): do not alter RTK expression | ERK activity in SUM159-R cells (ERK1/2 [4]): inhibited ERK activity

CC(C)C[C@H](NC(=O)[C@H](Cc1ccccc1)NC(=O)c1cnccn1)B(O)O [bortezomib]
AZD6244-dependent upregulation of RTKs (RTKs [2]; bortezomib 3, 10 or 20 nM with 5 μM AZD6244, 24 h): inhibited upregulation of RTKs | AZD6244-induced c-Myc degradation (c-Myc; bortezomib with 5 μM AZD6244, 24 h): prevented AZD6244-induced c-Myc degradation | RTK expression in SUM159-R cells (RTKs [5]): readily reversed RTK expression

N#CC(=C(/N)Sc1ccccc1N)/C(C#N)=C(\N)Sc1ccccc1N [U0126]
growth of MDA-MB-231 cells (MDA-MB-231 cells; 5 μM MEK inhibitor (FIG. 9A)): inhibited growth | growth of SUM159 cells (SUM159 cells; 5 μM MEK inhibitor (FIG. 2A)): inhibited growth

Cn1c(=O)n(-c2ccc(C(C)(C)C#N)cc2)c2c3cc(-c4cnc5ccccc5c4)ccc3ncc21 [BEZ235]
effect on the ERK pathway (ERK1/2 [6]): little effect | p70 S6 kinase activity (p70 S6 kinase [7]): inhibits p70 S6 kinase activity | RTK phosphorylation profile (RTKs [2]; 5 μM AZD6244, 50 nM BEZ235 (FIG. 3H)): did not change the RTK phosphorylation profile except for an increase in phospho-AXL | c-Myc expression (c-Myc; BEZ235 100 nM (FIG. 11C)): does not change | growth of SUM159 cells (SUM159 cells; BEZ235 50 nM): strongly growth arrests

COc1cc2c(Oc3ccc(NC(=O)C4(C(=O)Nc5ccc(F)cc5)CC4)cc3F)ccnc2cc1OCCCN1CCOCC1 [foretinib]
MDA-MB-231 cell growth in combination with AZD6244 (MDA-MB-231 cells): little effect | SUM159 cell growth inhibition in combination with AZD6244 (SUM159 cells): synergistic | SUM159 cell growth inhibition, RTK inhibitor as single agent (SUM159 cells): ineffective as single agents

COc1ncc(-c2ccc3nccc(-c4ccnnc4)c3c2)cc1NS(=O)(=O)c1ccc(F)cc1F [GSK2126458]
p70 S6 kinase activity (p70 S6 kinase [8]): inhibited p70 S6 kinase activity | ALK, RET, INSR and IGF-1R phosphorylation [9]: induced ALK, RET, INSR and IGF-1R phosphorylation

CCCS(=O)(=O)Nc1ccc(F)c(C(=O)c2c[nH]c3ncc(Cl)cc23)c1F [PLX4720]
growth of SUM159 cells, RAF inhibitor in combination with AZD6244 (SUM159 cells; cotreatment 72 h (FIG. 12F)): stimulated the growth

— patent publication US20140243239A1, “MULTIPLEXED KINASE INHIBITOR BEADS AND USES THEREOF” (University of North Carolina at Chapel Hill, priority 2011, published 2014)
